From ChEMBL document CHEMBL1201862, “PubChem BioAssay data set” (2004)
The source made the active and inactive calls.

Legend:
[1] = reduction of Shn3 3'UTR-driven luciferase in osteoblasts – cell-based, Clone20 osteoblasts, firefly luciferase, cherry-picked, dose response (AID 624132); type: functional;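 further: firefly luciferase luminescence from reporter carrying the Shn3 3'UTR in osteoblasts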
HEK293 [2] = experiment: cells; type: functional, cell-based; settings: Homo sapiens
[3] = loss of viability in HepG2 cells – cell-based, CellTiter-Glo, cherry-picked, cytotoxicity control for Shn3 inhibitor project, dose response (AID 624134); type: functional
[4] = general cell-killing toxicity readout – plate reader, dry powder samples, cytotoxicity control for PAX8 inhibitor project, dose response (AID 743021); type: functional, cell-based
[5] = non-specific 3'UTR reporter inhibition in Clone20-Shn3RL – cell-based, Renilla luciferase, cherry-picked, counter-screen for Shn3 inhibitor project, dose response (AID 624133); type: functional
[6] = molecular target: T1, Heat shock factor protein 1 (Mus musculus, UniProt P38532); experiment: enhancement of HSF1-driven luciferase signal – cell-based, NIH3T3, luminescence, dose retest, confirmation (AID 435004); type: functional;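 further: stress induced by proteasome inhibitor MG132 added 30 min after compound; luciferase reporter driven by HSF1 response element in NIH3T3 cells; actives raise luminescence as potentiators of the MG132 stress response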
T1 sequence (P38532 whole entry): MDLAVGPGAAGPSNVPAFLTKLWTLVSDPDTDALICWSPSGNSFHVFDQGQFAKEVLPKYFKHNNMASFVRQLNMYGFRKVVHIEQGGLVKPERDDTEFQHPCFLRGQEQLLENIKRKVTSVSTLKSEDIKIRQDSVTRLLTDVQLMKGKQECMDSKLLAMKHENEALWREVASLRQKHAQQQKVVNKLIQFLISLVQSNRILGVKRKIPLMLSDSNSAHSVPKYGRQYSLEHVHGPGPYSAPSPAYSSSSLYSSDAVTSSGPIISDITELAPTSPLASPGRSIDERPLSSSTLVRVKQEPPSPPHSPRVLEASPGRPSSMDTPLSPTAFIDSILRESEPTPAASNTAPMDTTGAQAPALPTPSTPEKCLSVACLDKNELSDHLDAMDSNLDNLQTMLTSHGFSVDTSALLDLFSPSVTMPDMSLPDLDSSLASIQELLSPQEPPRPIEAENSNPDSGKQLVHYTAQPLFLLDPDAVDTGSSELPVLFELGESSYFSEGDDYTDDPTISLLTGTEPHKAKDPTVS

HEK293 [7] = experiment: NOD2 signaling inhibitors in MDP-stimulated cells, cell-based, uHTS, luminescence (AID 2001); type: functional; settings: Homo sapiens
HEK293 [8] = experiment: cells; type: functional, cell-based; settings: Homo sapiens; remark: listed apart in the source
[9] = NIH3T3 cell viability loss – ATP luminescence, mouse fibroblasts, counter-screen, dose response (AID 2010); type: functional, cell-based;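 further: cells exposed to compound for about 90 hours before reading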
[10] = fluconazole-exposed Candida albicans growth modulators – fluorescence, retest, confirmation (AID 2467); type: functional, cell-based
HEK293 [11] = experiment: cells; type: functional, cell-based; settings: Homo sapiens; remark: listed apart in the source
HEK293 [12] = experiment: inhibition of NOD1-driven NF-kB reporter – cell-based, luminescence, uHTS, primary screen (AID 1578); type: functional; settings: Homo sapiens
[13] = Trypanosoma cruzi growth suppression in host cells – NIH3T3 host cells, beta-gal luminescence, confirmation (AID 2044); type: functional, cell-based;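 further: intracellular parasites grown in NIH/3T3 mouse fibroblasts as host cells; luminescent beta-galactosidase reporter signal from transgenic T. cruzi replicating inside host cells; inhibitors lower the luminescence signal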
[14] = molecular target: Nucleotide-binding oligomerization domain-containing protein 2 (Homo sapiens, UniProt Q9HC29); experiment: inhibition of NOD2-driven NF-kB reporter – cell-based, luminescence, uHTS, HEK293 (AID 1566); type: functional
Nucleotide-binding oligomerization domain-containing protein 2, sequence (Q9HC29 whole entry, the tested form may be a part): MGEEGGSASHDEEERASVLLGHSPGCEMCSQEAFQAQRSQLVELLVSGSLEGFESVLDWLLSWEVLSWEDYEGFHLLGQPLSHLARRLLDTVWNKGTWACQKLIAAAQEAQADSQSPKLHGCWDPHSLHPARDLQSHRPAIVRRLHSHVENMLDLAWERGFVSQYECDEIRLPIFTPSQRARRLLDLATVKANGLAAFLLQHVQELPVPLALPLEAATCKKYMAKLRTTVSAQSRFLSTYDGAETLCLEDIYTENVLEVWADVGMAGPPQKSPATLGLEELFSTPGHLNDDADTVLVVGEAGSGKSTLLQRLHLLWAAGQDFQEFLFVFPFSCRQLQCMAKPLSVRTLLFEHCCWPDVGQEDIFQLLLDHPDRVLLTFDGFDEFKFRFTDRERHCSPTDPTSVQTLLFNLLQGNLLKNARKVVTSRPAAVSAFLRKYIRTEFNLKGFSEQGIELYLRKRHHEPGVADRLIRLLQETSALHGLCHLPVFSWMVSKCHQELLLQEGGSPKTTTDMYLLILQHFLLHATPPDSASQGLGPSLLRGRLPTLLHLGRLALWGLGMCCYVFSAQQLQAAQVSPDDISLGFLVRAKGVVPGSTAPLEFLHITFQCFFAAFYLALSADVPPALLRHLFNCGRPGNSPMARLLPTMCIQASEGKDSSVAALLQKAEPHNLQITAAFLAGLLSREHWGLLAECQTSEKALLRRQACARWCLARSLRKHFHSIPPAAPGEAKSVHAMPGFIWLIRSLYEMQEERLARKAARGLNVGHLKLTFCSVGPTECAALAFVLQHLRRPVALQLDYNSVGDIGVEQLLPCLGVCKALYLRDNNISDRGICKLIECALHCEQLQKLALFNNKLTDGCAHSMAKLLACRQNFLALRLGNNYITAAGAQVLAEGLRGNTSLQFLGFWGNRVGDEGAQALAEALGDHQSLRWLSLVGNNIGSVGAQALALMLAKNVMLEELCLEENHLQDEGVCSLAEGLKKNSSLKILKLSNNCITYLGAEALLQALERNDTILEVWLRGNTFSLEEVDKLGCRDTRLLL

[15] = NIH-3T3 fibroblast cytotoxicity, dose response, cytotoxicity control, cell-based, fluorescence, Alamar Blue, secondary assay (AID 2327); type: functional;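 further: NIH-3T3 mouse fibroblasts cultured with fluconazole at 8 µg/mL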
[16] = molecular target: Intestinal-type alkaline phosphatase (Mus musculus, UniProt P24822); experiment: PubChem AID 488785; type: functional
Intestinal-type alkaline phosphatase (Mus musculus, UniProt P24822), sequence (P24822 whole entry): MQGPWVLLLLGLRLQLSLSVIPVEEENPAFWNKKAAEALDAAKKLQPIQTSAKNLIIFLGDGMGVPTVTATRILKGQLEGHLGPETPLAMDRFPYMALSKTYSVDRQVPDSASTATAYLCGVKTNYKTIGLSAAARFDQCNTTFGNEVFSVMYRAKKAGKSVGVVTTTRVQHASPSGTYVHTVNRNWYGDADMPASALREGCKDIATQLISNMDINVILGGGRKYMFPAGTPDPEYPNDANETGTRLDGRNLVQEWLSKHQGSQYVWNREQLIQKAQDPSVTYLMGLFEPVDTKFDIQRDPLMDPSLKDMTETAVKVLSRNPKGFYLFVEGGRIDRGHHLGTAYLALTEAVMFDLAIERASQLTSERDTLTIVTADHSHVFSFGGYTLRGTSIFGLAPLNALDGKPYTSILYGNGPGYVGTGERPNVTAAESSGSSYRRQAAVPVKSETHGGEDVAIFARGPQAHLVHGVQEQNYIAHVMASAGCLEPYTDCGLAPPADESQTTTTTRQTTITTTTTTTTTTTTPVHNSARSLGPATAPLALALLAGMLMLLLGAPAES

[17] = molecular target: T2, Alkaline phosphatase, tissue-nonspecific isozyme (Homo sapiens, UniProt P05186); experiment: TNAP enzyme inhibition by screening hits, dose response, selectivity assay for mouse IAP inhibitor project, biochemical, human TNAP, uHTS hits (AID 488906); type: functional
T2 sequence (P05186 whole entry): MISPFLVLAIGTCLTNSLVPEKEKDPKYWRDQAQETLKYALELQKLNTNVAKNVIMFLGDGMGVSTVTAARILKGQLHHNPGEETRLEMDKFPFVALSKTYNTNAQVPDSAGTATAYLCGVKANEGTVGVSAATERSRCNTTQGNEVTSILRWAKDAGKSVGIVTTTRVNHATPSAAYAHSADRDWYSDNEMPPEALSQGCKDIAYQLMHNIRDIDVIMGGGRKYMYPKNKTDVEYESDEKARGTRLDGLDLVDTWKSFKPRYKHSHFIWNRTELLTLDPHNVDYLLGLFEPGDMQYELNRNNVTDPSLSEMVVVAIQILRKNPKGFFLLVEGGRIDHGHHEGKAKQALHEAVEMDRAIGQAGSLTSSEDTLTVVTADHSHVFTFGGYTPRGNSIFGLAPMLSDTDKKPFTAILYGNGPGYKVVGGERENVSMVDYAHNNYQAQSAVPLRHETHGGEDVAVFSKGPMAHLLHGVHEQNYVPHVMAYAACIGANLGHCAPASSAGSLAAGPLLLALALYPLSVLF

[18] = molecular target: Intestinal-type alkaline phosphatase (Homo sapiens, UniProt P09923); experiment: inhibition of human intestinal alkaline phosphatase – biochemical, dose response (AID 488876); type: functional
Intestinal-type alkaline phosphatase (Homo sapiens, UniProt P09923), sequence (P09923 whole entry): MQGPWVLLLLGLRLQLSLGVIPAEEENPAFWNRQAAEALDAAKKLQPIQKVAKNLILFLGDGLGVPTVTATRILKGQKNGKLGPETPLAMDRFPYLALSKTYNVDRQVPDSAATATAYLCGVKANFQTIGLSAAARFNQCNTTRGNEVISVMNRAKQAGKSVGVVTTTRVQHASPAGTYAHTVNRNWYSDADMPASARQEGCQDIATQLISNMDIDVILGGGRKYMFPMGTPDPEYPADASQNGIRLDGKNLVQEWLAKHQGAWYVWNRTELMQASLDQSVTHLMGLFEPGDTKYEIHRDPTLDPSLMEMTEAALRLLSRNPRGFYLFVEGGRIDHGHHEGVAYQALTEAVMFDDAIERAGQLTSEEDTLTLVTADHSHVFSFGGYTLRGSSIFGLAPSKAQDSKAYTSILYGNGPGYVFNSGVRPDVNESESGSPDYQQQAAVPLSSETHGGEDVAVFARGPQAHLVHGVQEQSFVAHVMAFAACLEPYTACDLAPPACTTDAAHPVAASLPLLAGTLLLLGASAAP

[19] = molecular target: T3, Long-chain-fatty-acid--AMP ligase FadD28 (Mycobacterium tuberculosis, UniProt P9WQ59); experiment: Fluorescence polarization aasay to screen for inhibitors that compete for the binding of FadD28 to a bisubstrate Measured in Biochemical System Using Plate Reader - 2147-01_Inhibitor_Dose_CherryPick_Activity.; type: functional, Mycobacterium tuberculosis H37Rv
T3 sequence (P9WQ59 whole entry): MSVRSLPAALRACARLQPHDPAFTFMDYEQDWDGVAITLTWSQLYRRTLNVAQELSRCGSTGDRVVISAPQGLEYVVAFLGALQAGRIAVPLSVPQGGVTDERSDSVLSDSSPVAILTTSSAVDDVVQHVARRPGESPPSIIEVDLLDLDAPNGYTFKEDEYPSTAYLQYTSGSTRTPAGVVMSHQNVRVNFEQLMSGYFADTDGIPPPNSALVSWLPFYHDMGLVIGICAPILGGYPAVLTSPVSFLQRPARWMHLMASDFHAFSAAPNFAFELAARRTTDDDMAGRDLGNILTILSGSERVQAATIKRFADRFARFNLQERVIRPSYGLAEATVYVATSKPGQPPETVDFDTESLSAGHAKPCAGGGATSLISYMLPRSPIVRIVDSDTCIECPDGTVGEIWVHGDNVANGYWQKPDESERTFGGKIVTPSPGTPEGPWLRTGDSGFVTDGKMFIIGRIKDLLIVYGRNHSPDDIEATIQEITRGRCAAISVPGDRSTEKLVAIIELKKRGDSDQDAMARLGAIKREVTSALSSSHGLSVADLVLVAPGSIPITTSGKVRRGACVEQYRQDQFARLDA

[20] = molecular target: Heat shock protein HSP 90-alpha (Homo sapiens, UniProt P07900); type: functional, organism-based
Exodeoxyribonuclease V = Exodeoxyribonuclease V (Escherichia coli (strain K12), UniProt P04993+P07648+P08394); experiment: RecBCD inhibition via phage-restricted bacterial growth – absorbance, V66 E. coli, mutant T4 phage, counter-screen for AddAB inhibitor project, dose response (AID 492957); type: functional, cell-based, Escherichia coli str. K-12 substr. MG1655
Exodeoxyribonuclease V, sequence (P04993 whole entry): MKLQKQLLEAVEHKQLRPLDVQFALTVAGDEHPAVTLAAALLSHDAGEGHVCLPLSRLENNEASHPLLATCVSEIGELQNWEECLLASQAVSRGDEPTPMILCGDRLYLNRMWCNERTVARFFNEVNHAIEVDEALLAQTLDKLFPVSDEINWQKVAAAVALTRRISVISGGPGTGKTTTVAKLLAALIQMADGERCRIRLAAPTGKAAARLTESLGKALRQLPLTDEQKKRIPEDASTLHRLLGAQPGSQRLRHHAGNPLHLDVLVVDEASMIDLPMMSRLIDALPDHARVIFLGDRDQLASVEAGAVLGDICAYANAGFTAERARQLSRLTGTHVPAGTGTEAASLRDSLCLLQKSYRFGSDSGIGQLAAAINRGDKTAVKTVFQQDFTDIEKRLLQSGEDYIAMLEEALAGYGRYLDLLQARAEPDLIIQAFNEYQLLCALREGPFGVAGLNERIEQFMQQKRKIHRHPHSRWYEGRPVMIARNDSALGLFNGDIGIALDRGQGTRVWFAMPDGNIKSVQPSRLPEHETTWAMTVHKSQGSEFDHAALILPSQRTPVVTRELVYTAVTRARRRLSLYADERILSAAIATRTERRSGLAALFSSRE
Exodeoxyribonuclease V, sequence (P07648 whole entry): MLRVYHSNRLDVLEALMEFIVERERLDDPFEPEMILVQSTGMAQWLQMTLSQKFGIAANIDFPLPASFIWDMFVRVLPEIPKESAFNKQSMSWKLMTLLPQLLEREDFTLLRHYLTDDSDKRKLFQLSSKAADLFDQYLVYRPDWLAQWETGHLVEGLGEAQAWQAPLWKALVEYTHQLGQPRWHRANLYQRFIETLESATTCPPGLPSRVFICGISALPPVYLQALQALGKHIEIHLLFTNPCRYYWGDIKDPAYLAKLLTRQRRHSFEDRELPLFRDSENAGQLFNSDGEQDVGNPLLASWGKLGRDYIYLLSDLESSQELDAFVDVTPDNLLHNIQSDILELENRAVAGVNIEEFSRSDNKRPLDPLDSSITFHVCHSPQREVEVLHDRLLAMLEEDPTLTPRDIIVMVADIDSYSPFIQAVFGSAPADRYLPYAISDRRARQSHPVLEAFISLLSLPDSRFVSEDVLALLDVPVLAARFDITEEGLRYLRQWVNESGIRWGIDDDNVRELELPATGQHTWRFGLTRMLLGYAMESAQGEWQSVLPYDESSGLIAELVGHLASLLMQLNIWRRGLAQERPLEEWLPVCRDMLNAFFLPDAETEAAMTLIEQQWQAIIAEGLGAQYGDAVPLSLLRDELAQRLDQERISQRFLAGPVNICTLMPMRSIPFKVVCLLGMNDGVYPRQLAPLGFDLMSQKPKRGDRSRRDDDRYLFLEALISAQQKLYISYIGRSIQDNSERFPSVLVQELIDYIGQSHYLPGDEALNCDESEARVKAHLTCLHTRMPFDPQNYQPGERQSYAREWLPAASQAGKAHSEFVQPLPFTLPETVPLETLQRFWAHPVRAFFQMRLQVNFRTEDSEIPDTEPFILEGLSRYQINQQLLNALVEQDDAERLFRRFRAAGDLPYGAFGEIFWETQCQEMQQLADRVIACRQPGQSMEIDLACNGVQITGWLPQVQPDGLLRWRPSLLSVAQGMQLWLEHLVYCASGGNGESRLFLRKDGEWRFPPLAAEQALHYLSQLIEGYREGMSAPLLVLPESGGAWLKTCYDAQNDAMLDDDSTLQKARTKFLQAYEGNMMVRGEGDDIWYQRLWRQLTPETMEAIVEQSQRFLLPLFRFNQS
Exodeoxyribonuclease V, sequence (P08394 whole entry): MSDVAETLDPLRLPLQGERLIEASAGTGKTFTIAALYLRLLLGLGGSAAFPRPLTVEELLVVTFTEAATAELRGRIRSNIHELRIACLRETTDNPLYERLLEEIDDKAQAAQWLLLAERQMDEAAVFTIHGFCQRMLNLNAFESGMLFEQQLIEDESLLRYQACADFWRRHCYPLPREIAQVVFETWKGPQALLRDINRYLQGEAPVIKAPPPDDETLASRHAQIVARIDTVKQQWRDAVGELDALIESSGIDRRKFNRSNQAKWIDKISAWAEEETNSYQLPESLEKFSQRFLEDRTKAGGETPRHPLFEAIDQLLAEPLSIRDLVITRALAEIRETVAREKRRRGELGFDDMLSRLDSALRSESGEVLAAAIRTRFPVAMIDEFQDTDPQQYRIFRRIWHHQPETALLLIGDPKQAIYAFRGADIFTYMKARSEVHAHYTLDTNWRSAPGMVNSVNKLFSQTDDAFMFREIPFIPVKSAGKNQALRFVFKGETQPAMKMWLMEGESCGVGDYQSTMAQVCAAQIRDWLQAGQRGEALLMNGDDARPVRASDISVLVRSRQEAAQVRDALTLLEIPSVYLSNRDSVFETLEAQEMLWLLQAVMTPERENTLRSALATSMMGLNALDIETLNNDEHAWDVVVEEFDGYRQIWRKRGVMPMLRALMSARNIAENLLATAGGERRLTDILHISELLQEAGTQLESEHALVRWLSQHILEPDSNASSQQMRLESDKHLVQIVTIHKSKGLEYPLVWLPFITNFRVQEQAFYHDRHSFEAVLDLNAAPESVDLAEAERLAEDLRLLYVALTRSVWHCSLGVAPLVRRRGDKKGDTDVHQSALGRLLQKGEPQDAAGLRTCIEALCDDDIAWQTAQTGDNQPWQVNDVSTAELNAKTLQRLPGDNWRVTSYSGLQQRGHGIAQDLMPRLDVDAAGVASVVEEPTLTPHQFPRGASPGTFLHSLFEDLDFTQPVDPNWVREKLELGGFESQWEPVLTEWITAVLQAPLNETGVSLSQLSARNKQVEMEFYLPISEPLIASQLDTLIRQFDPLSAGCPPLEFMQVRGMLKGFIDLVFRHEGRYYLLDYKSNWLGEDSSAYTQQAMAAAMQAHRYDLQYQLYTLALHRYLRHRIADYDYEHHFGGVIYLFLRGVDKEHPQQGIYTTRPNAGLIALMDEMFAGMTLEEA

[21] = Counterscreen for AddAB inhibitors: absorbance-based bacterial cell-based high throughput dose response assay for inhibitors of bacterial viability. [Related pubchem assays (depositor defined):AID435030, AID449728, AID449731, AID488942, AID488955, AID488956]; type: functional

Structure (SMILES): O=[N+]([O-])c1cccnc1S(=O)(=O)c1ccccc1
- AC50 [1]: 4.79 µM (active)
- IC50 (HEK293 [2]): 11.6 µM (active)
- AC50 [3]: 51 µM (active)
- AC50 [4]: 24.2 µM (active)
- AC50 [5]: 5.79 µM (active)
- EC50 [6]: 11.9 µM (active)
- IC50 (HEK293 [7]): 4.56 µM (active)
- IC50 (HEK293 [8]): 2.38 µM (active)
- EC50 [9]: 4.16 µM (active)
- EC50 [10]: 2.63 µM (active)
- IC50 (HEK293 [11]): > 20 µM (inactive)
- EC50 (HEK293 [12]): 12.4 µM (active)
- EC50 [13]: 3.71 µM (active)
- EC50 [14]: > 20 µM (inactive)
- EC50 [15]: 4.24 µM (inconclusive)

Structure (SMILES): O=C(NN1C(=O)/C(=C/c2ccc(O)cc2)SC1=S)c1ccccc1O
- IC50 [16]: 4.68 µM (active)
- IC50 [17]: > 100 µM (inactive)
- IC50 [18]: > 100 µM (inactive)
- AC50 [19]: 61.9 µM (active)

Structure (SMILES): O=C1c2ccccc2NC(c2ccc(-c3ccc(C(F)(F)F)cc3)o2)N1O (configuration not stated)
- AC50 [20]: 7.23 µM (active)
- IC50 (Exodeoxyribonuclease V): > 119 µM (inactive)
- IC50 [21]: > 119 µM (inactive)
